Measurements: article PMC6801819, “Exogenous Iron Increases Fasciocidal Activity and Hepatocellular Toxicity of the Synthetic Endoperoxides OZ78 and MT04” (International Journal of Molecular Sciences, 2019)
Like-named read-outs stand apart in the source and are kept apart here.

How the values were obtained:
[1] = test system: HepG2 cells; assay: Adenylate kinase leakage (membrane integrity test); assay type: cell-based, human; conditions: 24 h, HepG2; for increase in AK release as compared to DMSO control / membrane integrity: 500 µM alone (OZ78, MT04: up to 500 µM); for release of AK, increase as compared to DMSO: combined treatment with Fe2+, concentration not given
Method: Stock solutions of the drugs tested were prepared in DMSO 100% (v/v).
In viability assays, HepG2 cells were treated with 0.1% Triton-X or 0.1% DMSO for positive or negative control, respectively.
The assay was used according to the protocol supplied by the manufacturer.

[2] = test system: complex I of the mitochondrial electron transport chain; assay: High-resolution respirometry, glutamate/malate (complex I); assay type: cell-based, human; conditions: AS 100 µM, OZ78 500 µM, MT04 500 µM, 24 h, permeabilized HepG2, vs DMSO
Method: (§1) After incubation with different drugs for 24 h, HepG2 cells were trypsinized and resuspended in DMEM with 10% fetal calf serum (FCS) and then centrifuged for 5 min (180× g). Cells were resuspended in MiRo5 respiration buffer (110 mM sucrose, 0.5 mM ethylene glycol-bis(β-aminoethyl ether)-N,N,N′,N′-tetraacetic acid (EGTA), 3.0 mM MgCl2, 80 mM KCl, 60 mM K-lactobionate, 10 mM KH2PO4, 20 mM taurine, 20 mM Hepes, 1.0 g/L BSA, pH 7.1). Respiration rates were measured at 37 °C using a high-resolution oxygraph (Oxygraph-2k, Oroboros Instruments, Innsbruck, Austria). Respiration rates were calculated as the time derivative of oxygen concentration measured in the closed respirometer. The amplified signal was recorded in a computer with an online display of the calibrated oxygen concentration and oxygen flux (DatLab software for data acquisition and analysis; Oroboros Instruments). The mitochondrial complex activity was assessed by a standard titration protocol: first cells were permeabilized with digitonin (10 µg/1 million cells) for 5 min. Afterward, for complex I-dependent maximal respiration stimulation, substrates added were glutamate (10 mM) and malate (5 mM), which provide nicotinamide adenine dinucleotide (NADH) to the respiratory chain (complex I activation), followed by addition of ADP (2.5 mM) (state 3, maximal respiration). After a stable signal was reached and marked, rotenone (0.5 µM) was added to inhibit complex I, and then complex II-dependent respiration was stimulated by adding succinate (10 mM), which provides flavin adenine dinucleotide (FADH) to the respiratory chain (complex II activation, state 3). Afterward, complex III was inhibited by antimycin A (2.5 µM), and complex IV-dependent respiration was measured by adding ascorbate (2 mM) and N,N,N′,N′-tetramethyl-p-phenylendiamine (TMPD, 0.5 mM). We confirmed the integrity of the outer mitochondrial membrane by showing the absence of a stimulatory effect of exogenous cytochrome c (10 µM) on respiration. Respiration was expressed as oxygen consumption per 5 × 10^5 cells.

[3] = test system: complex II of the mitochondrial electron transport chain; assay: High-resolution respirometry, succinate + rotenone (complex II); assay type: cell-based, human; conditions: AS 100 µM, OZ78 500 µM, MT04 500 µM, 24 h, permeabilized HepG2, vs control
Method: as §1

[4] = test system: complex IV of the mitochondrial electron transport chain; assay: High-resolution respirometry, TMPD/ascorbate + antimycin A (complex IV); assay type: cell-based, human; conditions: AS 100 µM, OZ78 500 µM, MT04 500 µM, 24 h, permeabilized HepG2
Method: as §1

[5] = test system: human liver microsomes; assay: Metabolism in the presence of human liver microsomes; assay type: in vitro ADME; conditions: 10 µM, 2 hours; for parent substance metabolized: functional human liver microsomes, 37 °C
Method: The metabolism of AS, MT04, and OZ78 was tested in the presence of human liver microsomes or heat-inactivated microsomes (70 °C for 20 min, referred to as control microsomes) at 37 °C. AS, MT04 or OZ78 (10 µM each) were added to 1.0 mL of reaction mixture consisting of microsomes ([…]), an NADPH regenerating system, and PBS buffer, pH 7.4. Adding the drugs started the reaction. Aliquots of 100 µL were transferred into Eppendorf tubes after 0, 15, 30, 60, 120 min. The reaction was stopped by adding 300 µL methanol. The samples were then vortexed and centrifuged at 3000 g for 30 min. Supernatants were taken for LC-MS analysis.
LC-MS/MS measurements for AS were performed as described recently. Briefly, sample measurements were done with a high-performance liquid chromatography (HPLC) system (Shimadzu, Kyoto, Japan) connected to an API 365 triple-quadrupole mass spectrometer (PE Biosystems, Foster City, CA, USA) with a turbo ion spray interface. AS was detected in positive ionization mode by selected reaction monitoring (SRM) with a transition of 267.4→163.0. For analyte separation, a reversed phase column was used (2.1 × 10 mm guard cartridge (3 μm) connected to a 2.1 × 20 mm Atlantis T3 3 μm analytical column (Waters, Milford, MA, USA)). A gradient was used (mobile phase A: 5 mM ammonium formiate plus 0.15% (v/v) formic acid in ultra-pure water, mobile phase B: 0.15% (v/v) formic acid in acetonitrile) at a flow rate of 0.3 mL/min.
The analysis of MT04 and OZ78 [42] was conducted using the same system as described for AS. A phenomenex C8 (50mm × 2.00mm, 5µm, Brechbühler AG, Schlieren, Switzerland) was used for chromatographic separation with a gradient (mobile A: 5 mM ammonium formiate in water and mobile B: acetonitrile) at a flow rate of 0.3 mL/min. MS was conducted in negative ionization mode. For OZ78 and MT04 a mass of 321.4 and 337.4, respectively, was detected.

[6] = test system: F. hepatica; conditions: rats infected with F. hepatica, single oral dose AS 200 mg/kg, OZ78 100 mg/kg, MT04 50 mg/kg; cited from earlier work
[7] = test system: mice; conditions: cited from earlier work
[8] = Drug solutions in cell culture medium; assay type: physicochemical; conditions: from DMSO stock
Method: Stock solutions of the drugs tested were prepared in DMSO 100% (v/v). […] LC-MS measurements confirmed the stability of the compounds (data not shown). Treatments with AS, MT04, or OZ78 (100 or 500 µM) were performed either alone or in combination with 8% (v/v) hemin or FeCl2 solution for 24 h. The final iron concentration used was 122 µM (stock 1.5 mM) based on previous in vitro studies with F. hepatica.

[9] = test system: F. hepatica; conditions: sheep naturally infected with F. hepatica; cited from earlier work
[10] = test system: F. hepatica; set-up: method as in PMID 21316331; conditions: 50 µg/mL; cited from earlier work
[11] = set-up: method as in PMID 15318224; conditions: cited from earlier work

Compound | membrane leakage (AK release) as compared to DMSO control ([1]; 100 µM + Fe2+) | increase in AK release as compared to DMSO control ([1]; 100 µM alone) | increase in AK release as compared to DMSO control / membrane integrity [1] | inhibition of maximal ADP-stimulated respiration rate, glutamate + malate (complex I) [2] | inhibition of mitochondrial respiration, succinate + rotenone (complex II) [3] | decrease of maximal ADP-stimulated respiration rate, TMPD/ascorbate + antimycin A (complex IV) [4] | parent substance metabolized [5] | degradation of parent substance ([5]; heat-inactivated microsomes) | killing of juvenile and adult liver flukes in vivo [6] | LD50 ([7]; single intramuscular administration) | LD50 ([7]; single intravenous administration) | release of AK, increase as compared to DMSO [1] | behaviour of drug solutions in medium [8] | egg count reduction [9] | worm burden reduction [9] | activity against the liver fluke F. hepatica [10] | effect in sheep [9] | mutagenic potential [11]
C[C@H]1[C@H](OC(=O)CCC(=O)O)O[C@@H]2O[C@@]3(C)CC[C@H]4[C@H](C)CC[C@@H]1[C@@]24OO3 [AS, artesunate, reference compound] | 320% | 190% | 270% | 75% | 83% | 47% | 94% | no degradation was detected | efficiently killed juvenile and adult liver flukes | 475 mg/kg | 520 mg/kg |  |  |  |  |  |  | 
O=C(O)CC1CCC2(CC1)OOC1(OO2)C2CC3CC(C2)CC1C3 (stereo not drawn) [MT04] |  |  | did not impair membrane integrity | 53% | 61% | 22% | did not show a decrease |  | efficiently killed juvenile and adult liver flukes |  |  | 200% | tend to precipitate | 98.5% | 92% | have activity |  | 
O=C(O)C[C@H]1CC[C@]2(CC1)OOC1(O2)C2CC3CC(C2)CC1C3 (stereo partly drawn) [OZ78] |  |  | did not impair membrane integrity | did not significantly impair mitochondrial function | only numerically, but without reaching statistical significance | only numerically, but without reaching statistical significance | did not show a decrease |  | efficiently killed juvenile and adult liver flukes |  |  | did not | tend to precipitate |  |  | have activity | no effect | no mutagenic potential
